In patent US20100267697A1, “ION CHANNEL MODULATORS” (Wyeth, priority 2006, published 2010):
Structures can show the parent of a compound that is named as a salt. Where two headings read alike, the source gives them in different places.

Legend:
Assay type in all cases: cell-based
Cav2.2 [1] = molecular target: Cav2.2 (UniProt Q02294); test: Oocyte assay (Xenopus oocyte heterologous expression, current at fifth pulse P5); settings: Xenopus oocytes; fifth pulse (P5) of 5 Hz train, holding potential −100 mV
Method: The assay was performed on various calcium channels (e.g., Cav2.2 subfamily) whereby the modulation of the calcium channel was measured for each tested compound.

Cav2.2 [2] = molecular target: T1, Cav2.2 (Homo sapiens, UniProt Q00975); test: HEK assay (whole-cell patch clamp, transiently transfected HEK-293T/17 cells, pulses P1 and P5); settings: holding potential −100 mV
T1 construct: expressed in transfected cells; host or cells: HEK-293T/17 (transient, FuGENE 6)
T1 sequence (Q00975 whole entry): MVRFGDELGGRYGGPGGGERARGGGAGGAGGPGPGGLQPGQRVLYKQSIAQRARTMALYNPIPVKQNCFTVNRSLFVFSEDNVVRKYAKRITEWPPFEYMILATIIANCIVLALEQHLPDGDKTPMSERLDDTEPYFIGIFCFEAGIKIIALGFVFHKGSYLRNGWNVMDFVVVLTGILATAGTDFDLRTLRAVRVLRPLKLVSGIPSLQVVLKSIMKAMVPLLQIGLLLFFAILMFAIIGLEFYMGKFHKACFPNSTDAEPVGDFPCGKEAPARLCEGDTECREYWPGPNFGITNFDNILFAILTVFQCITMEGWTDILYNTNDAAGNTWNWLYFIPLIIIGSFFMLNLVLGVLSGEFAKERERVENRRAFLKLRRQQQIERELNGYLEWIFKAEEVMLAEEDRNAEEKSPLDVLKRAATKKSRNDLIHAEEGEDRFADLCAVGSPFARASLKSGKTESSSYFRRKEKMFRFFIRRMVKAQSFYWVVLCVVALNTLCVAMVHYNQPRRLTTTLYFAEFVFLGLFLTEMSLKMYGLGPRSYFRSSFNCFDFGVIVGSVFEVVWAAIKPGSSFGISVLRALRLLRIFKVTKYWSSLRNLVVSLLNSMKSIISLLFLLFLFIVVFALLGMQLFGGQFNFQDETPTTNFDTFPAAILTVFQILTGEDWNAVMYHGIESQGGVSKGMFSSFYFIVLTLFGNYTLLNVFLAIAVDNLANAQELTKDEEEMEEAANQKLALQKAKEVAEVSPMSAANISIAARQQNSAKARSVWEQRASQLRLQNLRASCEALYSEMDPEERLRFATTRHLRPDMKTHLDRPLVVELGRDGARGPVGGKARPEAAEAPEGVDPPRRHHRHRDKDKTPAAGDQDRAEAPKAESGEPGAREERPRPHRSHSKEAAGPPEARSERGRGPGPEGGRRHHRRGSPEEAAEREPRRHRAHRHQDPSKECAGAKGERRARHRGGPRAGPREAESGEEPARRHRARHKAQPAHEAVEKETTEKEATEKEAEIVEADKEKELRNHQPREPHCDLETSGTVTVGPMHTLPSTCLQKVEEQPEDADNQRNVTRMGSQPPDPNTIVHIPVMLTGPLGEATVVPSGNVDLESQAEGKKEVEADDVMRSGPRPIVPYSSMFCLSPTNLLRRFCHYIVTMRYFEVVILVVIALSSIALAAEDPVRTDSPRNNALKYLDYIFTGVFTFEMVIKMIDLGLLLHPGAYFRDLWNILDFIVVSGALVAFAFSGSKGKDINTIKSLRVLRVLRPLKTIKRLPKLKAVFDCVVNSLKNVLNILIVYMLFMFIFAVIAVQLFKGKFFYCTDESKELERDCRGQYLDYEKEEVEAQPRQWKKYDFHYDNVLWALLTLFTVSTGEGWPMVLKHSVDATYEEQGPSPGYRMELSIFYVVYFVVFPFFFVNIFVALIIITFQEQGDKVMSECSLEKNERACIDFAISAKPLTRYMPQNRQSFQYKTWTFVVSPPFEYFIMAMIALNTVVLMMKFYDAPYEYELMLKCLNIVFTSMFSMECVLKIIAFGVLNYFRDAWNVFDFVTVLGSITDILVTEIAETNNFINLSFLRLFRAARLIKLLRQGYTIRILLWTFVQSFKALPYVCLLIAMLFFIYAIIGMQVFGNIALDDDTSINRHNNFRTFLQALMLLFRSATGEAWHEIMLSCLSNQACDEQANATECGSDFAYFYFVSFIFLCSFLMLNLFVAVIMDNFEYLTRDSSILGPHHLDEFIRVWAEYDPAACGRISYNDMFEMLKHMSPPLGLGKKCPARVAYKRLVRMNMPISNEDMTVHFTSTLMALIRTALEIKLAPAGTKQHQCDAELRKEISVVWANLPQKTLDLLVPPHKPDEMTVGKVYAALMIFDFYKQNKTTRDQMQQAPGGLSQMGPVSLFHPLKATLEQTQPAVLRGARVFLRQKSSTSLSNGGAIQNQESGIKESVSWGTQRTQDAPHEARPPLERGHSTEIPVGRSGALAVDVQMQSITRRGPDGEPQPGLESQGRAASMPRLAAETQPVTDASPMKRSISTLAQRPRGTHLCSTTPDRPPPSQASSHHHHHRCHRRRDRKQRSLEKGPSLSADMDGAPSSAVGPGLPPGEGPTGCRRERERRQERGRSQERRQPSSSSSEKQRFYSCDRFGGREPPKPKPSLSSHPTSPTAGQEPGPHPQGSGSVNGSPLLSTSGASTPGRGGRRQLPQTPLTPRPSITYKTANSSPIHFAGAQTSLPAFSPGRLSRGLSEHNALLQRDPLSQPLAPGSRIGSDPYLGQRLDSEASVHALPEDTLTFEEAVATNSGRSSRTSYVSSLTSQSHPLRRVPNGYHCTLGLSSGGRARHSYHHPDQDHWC
T1 sequence (P54284 whole entry partner): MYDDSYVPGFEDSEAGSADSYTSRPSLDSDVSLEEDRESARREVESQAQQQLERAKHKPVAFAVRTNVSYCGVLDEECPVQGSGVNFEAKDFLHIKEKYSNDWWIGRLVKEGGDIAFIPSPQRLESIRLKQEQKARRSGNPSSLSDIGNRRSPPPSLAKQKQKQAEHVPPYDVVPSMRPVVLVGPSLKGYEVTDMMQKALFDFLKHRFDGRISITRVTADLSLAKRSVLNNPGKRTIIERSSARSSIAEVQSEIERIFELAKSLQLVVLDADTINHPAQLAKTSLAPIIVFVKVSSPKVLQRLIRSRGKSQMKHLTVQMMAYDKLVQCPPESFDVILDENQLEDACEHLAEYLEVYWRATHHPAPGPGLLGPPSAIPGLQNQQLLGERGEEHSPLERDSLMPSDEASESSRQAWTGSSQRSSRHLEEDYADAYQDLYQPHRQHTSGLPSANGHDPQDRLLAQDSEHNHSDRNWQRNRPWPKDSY
T1 sequence (P54289 25-946 partner limits assumed): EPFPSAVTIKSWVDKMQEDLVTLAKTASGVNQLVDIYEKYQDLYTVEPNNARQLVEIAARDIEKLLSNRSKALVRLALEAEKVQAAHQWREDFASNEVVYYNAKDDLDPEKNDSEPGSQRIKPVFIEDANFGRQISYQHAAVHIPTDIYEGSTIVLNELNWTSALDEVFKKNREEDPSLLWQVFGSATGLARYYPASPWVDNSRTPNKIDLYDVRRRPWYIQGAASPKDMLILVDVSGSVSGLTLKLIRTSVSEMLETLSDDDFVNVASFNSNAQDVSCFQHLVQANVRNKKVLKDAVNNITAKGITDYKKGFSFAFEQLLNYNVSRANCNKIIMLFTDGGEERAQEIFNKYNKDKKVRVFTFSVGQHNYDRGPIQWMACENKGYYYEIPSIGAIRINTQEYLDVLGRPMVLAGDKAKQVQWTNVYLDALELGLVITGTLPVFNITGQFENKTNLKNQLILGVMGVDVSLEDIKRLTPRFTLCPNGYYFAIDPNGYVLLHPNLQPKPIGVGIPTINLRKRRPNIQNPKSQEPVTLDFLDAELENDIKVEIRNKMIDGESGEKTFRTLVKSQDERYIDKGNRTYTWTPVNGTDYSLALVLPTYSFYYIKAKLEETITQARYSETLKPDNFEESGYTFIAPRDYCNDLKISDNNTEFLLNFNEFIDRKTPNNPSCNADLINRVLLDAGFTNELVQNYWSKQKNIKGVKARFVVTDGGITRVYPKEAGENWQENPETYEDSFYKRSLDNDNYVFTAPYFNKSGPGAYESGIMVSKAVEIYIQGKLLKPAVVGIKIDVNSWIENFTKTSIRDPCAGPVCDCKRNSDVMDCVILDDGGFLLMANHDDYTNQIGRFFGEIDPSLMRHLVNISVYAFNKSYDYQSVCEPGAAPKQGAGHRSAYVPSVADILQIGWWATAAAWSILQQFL
T1 sequence (P54289 947-1103 partner limits assumed): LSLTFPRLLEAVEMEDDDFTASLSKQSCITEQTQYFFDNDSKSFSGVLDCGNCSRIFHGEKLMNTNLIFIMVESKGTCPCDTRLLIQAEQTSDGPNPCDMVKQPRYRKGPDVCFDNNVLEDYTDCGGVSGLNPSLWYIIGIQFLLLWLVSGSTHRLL
Method in brief: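 Whole-cell voltage clamp of HEK-293T/17 cells transiently transfected via FuGENE 6, then grown 24 h in 1% serum before recording. From −100 mV holding, trains of five 20–30 ms steps to about +10 mV at 5 Hz, repeated every 30 s; steady-state IC50s taken at first (P1) and fifth (P5) pulses to gauge use-dependent block.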

[3] = molecular target: T2, human Cav2.2 (composed of the subunits α1, β3 and α2δ) (Homo sapiens, UniProt Q00975); test: FLIPR assay (TSA201 cells stably transfected with human Cav2.2 and human Kir2.3, FLUO-4 Ca2+ signal, KCl depolarization); settings: 70 mM KCl depolarization, average value
T2 construct: expressed in transfected cells
T2 sequence (Q00975 whole entry): as the sequence (Q00975 whole entry) above
T2 sequence (P54284 whole entry partner): as the sequence (P54284 whole entry partner) above
T2 sequence (P54289 25-946 partner limits assumed): as the sequence (P54289 25-946 partner limits assumed) above
T2 sequence (P54289 947-1103 partner limits assumed): as the sequence (P54289 947-1103 partner limits assumed) above
Method in brief: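 TSA201 cells co-expressing Cav2.2 (α1, β3, α2δ) and Kir2.3 were loaded with FLUO-4 for 1 h at room temperature. Compound in HBSS with 1% DMSO was preincubated 15 min, then cells were depolarized with 70 mM final KCl (with CaCl2 and HEPES) and the Ca2+ fluorescence was read on FLIPR.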

[4] = fifth pulse (P5) of 5 Hz train, read-out: HEK Cav2.2 P5 IC50
[5] = first pulse (P1) of 5 Hz train, read-out: HEK Cav2.2 P1 IC50

Row | Structure (SMILES) | IC50 (Cav2.2 [1]) [µM] | IC50 (Cav2.2 [2]; [4]) [nM] | IC50 (Cav2.2 [2]; [5]) [nM] | IC50 [3] [µM]
1 | CC(C)(C)C(=O)N(Cc1csc(N2CCCCC2)n1)c1ccc(F)cc1 [Compound 2, N-(4-fluorophenyl)-2,2-dimethyl-N-(2-piperidin-1-yl-thiazol-4-ylmethyl)-propionamide hydrochloride] | 16.9 | 2000 | 16800 | –
2 | CCN(CC)c1ccc(CN(C(=O)C(C)(C)C)c2ccc(F)cc2)cn1 [Compound 3, N-(6-diethylamino-pyridin-3-ylmethyl)-N-(4-fluorophenyl)-2,2-dimethyl-propionamide trifluoroacetate] | 12.1 | 1300 | 4300 | –
3 | CCN(c1ccc(CN(C(=O)C(C)(C)C)c2ccc(F)cc2)cn1)C1CC1 [Compound 7, N-(6-(Cyclopropyl(ethyl)amino)-pyridin-3-ylmethyl)-N-(4-fluorophenyl)-2,2-dimethyl-propionamide] | 8 | 1700 | 12900 | –
4 | CC(C)(C)C(=O)N(Cc1cnc(N2CCCCC2)nc1)c1ccc(F)cc1 [Compound 8, N-(4-fluorophenyl)-2,2-dimethyl-N-(2-piperidin-1-yl-pyrimidin-5-ylmethyl)-propionamide hydrochloride] | 8.7 | 1600 | 5100 | –
5 | CN1CCN(c2ccc(CN(C(=O)NC(C)(C)C)c3ccc(F)cc3)cn2)CC1 [Compound 11, 3-tert-butyl-1-(4-fluorophenyl)-1-(6-(4-methyl-piperazin-1-yl)-pyridin-3-ylmethyl)-urea hydrochloride] | 44 | – | – | –
6 | CN1CCN(c2ccc(CN(C(=O)C3CCCO3)c3ccc(F)cc3)cn2)CC1 (stereo not shown) [Compound 16, TETRAHYDRO-FURAN-2-CARBOXYLIC ACID (4-FLUOROPHENYL)-(6-(4-METHYL-PIPERAZIN-1-YL)-PYRIDIN-3-YLMETHYL)-AMIDE TRIFLUOROACETATE] | 86 | – | – | –
7 | CN1CCN(c2ccc(CN(C(=O)C(C)(C)C)c3ccc(F)cc3)cn2)CC1 [Compound 17, N-(4-Fluorophenyl)-N-[6-(4-methyl-piperazin-1-yl)-pyridin-3-ylmethyl)-2,2-dimethyl-propionamide] | 41.9 | – | – | –
8 | CN(CCc1ccccn1)c1ccc(CN(C(=O)C(C)(C)C)c2ccc(F)cc2)cn1 [Compound 18, N-(4-Fluorophenyl)-2,2-dimethyl-N-{6-[methyl-(2-pyridin-2-yl-ethyl)-amino]-pyridin-3-ylmethyl}-propionamide] | 7.1 | 1700 | 4000 | –
9 | CN(CCN1CCOCC1)c1ccc(CN(C(=O)C(C)(C)C)c2ccc(F)cc2)cn1 [Compound 20, N-(4-Fluorophenyl)-2,2-dimethyl-N-{6-[methyl-(2-morpholin-4-yl-ethyl)-amino]-pyridin-3-ylmethyl}-propionamide] | 35.5 | 5200 | 22200 | –
10 | Cc1cc(F)ccc1N(Cc1ccc(N2CCN(C)CC2)nc1)C(=O)C(C)(C)C [Compound 21, N-(4-Fluoro-2-methyl-phenyl)-2,2-dimethyl-N-[6-(4-methyl-piperazin-1-yl)-pyridin-3-ylmethyl]-propionamide] | 18 | 2700 | 10500 | –
11 | CN1CCCN(c2ccc(CN(C(=O)C(C)(C)C)c3ccc(F)cc3)cn2)CC1 [Compound 22, N-(4-Fluorophenyl)-2,2-dimethyl-N-[6-(4-methyl-[1,4]diazepan-1-yl)-pyridin-3-ylmethyl]-propionamide] | 18.3 | 5700 | 27800 | –
12 | CCC(C)(C)C(=O)N(Cc1ccc(N(C)CCc2ccccn2)nc1)c1ccc(F)cc1 [Compound 24, N-(4-Fluorophenyl)-2,2-dimethyl-N-{6-[methyl-(2-pyridin-2-yl-ethyl)-amino]-pyridin-3-ylmethyl}-butyramide] | 3.8 | 600 | 2900 | –
13 | CC(C)(C)C(=O)N(Cc1ccc(N2CCN(c3ccccn3)CC2)nc1)c1ccc(F)cc1 [Compound 25, N-(4-Fluorophenyl)-2,2-dimethyl-N-[6-(4-pyridin-2-yl-piperazin-1-yl)-pyridin-3-ylmethyl]-propionamide] | 4.2 | 300 | 2400 | –
14 | CCC(C)(C)C(=O)N(Cc1ccc(N2CCN(c3ccccn3)CC2)nc1)c1ccc(F)cc1 [Compound 26, N-(4-Fluorophenyl)-2,2-dimethyl-N-[6-(4-pyridin-2-yl-piperazin-1-yl)-pyridin-3-ylmethyl]-butyamide] | 12.2 | 400 | 1700 | –
15 | CN1CCN(c2ccc(CN(C(=O)C3CC3)c3ccc(F)cc3)cn2)CC1 [Compound 103, Cyclopropanecarboxylic acid (4-fluorophenyl)-[6-(4-methyl-piperaizn-1-yl)-pyridin-3-ylmethyl]-amide] | 129 | – | – | –
16 | CCN(CC)c1ccc(CN(C(=O)C2CCOC2)c2ccc(F)cc2)cn1 (stereo not shown) [Compound 112, Tetrahydro-furan-3-carboxylic acid (6-diethylamino-pyridin-3-ylmethyl)-(4-fluorophenyl)-amide] | 37 | – | – | –
17 | CCN(CC)c1ccc(CN(C(=O)C2CCOCC2)c2ccc(F)cc2)cn1 [Compound 113, Tetrahydro-pyran-4-carboxylic acid (6-diethylamino-pyridin-3-ylmethyl)-(4-fluorophenyl)-amide] | 30 | – | – | –
18 | CC(C)(C)C(=O)N(Cc1csc(-c2ccc(F)cc2)n1)c1ccc(F)cc1 [Compound 247, N-(4-fluorophenyl)-N-{[2-(4-fluorophenyl)-1,3-thiazol-4-yl]methyl}-2,2-dimethylpropanamide] | – | – | – | 5
19 | CC(C)(C)C(=O)N(Cc1csc(-c2cccc(F)c2)n1)c1ccc(F)cc1 [Compound 248, N-(4-fluorophenyl)-N-{[2-(3-fluorophenyl)-1,3-thiazol-4-yl]methyl}-2,2-dimethylpropanamide] | – | – | – | 5.3
20 | CC(C)(C)C(=O)N(Cc1csc(-c2ccccc2F)n1)c1ccc(F)cc1 [Compound 249, N-(4-fluorophenyl)-N-{[2-(2-fluorophenyl)-1,3-thiazol-4-yl]methyl}-2,2-dimethylpropanamide] | – | – | – | 7.9
21 | CN1CCN(c2ccc(CN(C(=O)C3CCCO3)c3ccc(F)cc3)cn2)CC1 (stereo not shown) [Compound 250, N-(4-fluorophenyl)-N-{[6-(4-methylpiperazin-1-yl)pyridin-3-yl]methyl}tetrahydrofuran-2-carboxamide] | – | – | – | 34.4
22 | O=C(C1CCCO1)N(Cc1ccc(Cl)nc1)c1ccc(F)cc1 (stereo not shown) [Compound 252, N-[(6-chloropyridin-3-yl)methyl]-N-(4-fluuorophenyl)tetrahydrofuran-2-carboxamide] | – | – | – | 13.4
23 | CC(C)(C)OC(=O)N1CC[C@H](C(=O)N(Cc2ccc(Cl)nc2)c2ccc(F)cc2)C1 [Compound 254, TERT-BUTYL (3S)-3-{[(6-CHLOROPYRIDIN-3-YL)METHYL](4-FLUOROPHENYL)CARBAMOYL}PYRROLIDINE-1-CARBOXYLATE] | – | – | – | 2.9
24 | CC(C)(C)OC(=O)N1CC[C@@H](C(=O)N(Cc2ccc(Cl)nc2)c2ccc(F)cc2)C1 [Compound 255, tert-butyl (3R)-3-{[(6-chloropyridin-3-yl)methyl](4-fluorophenyl)carbamoyl}pyrrolidine-1-carboxylate] | – | – | – | 2.8
25 | CN1CCN(c2ccc(CN(C(=O)[C@H]3CCN(C(=O)OC(C)(C)C)C3)c3ccc(F)cc3)cn2)CC1 [Compound 256, tert-butyl (3S)-3-[(4-fluorophenyl){[6-(4-methylpiperazin-1-yl)pyridin-3-yl]methyl}carbamoyl]pyrrolidine-1-carboxylate] | – | – | – | 12.6
26 | CN1CCN(c2ccc(CN(C(=O)[C@@H]3CCN(C(=O)OC(C)(C)C)C3)c3ccc(F)cc3)cn2)CC1 [Compound 257, tert-butyl (3R)-3-[(4-fluorophenyl){[6-(4-methylpiperazin-1-yl)pyridin-3-yl]methyl}carbamoyl]pyrrolidine-1-carboxylate] | – | – | – | 22.9
27 | CN1CCN(c2ccc(CN(C(=O)[C@H]3CCNC3)c3ccc(F)cc3)cn2)CC1 [Compound 258, (3S)-N-(4-fluorophenyl)-N-{[6-(4-methylpiperazin-1-yl)pyridin-3-yl]methyl}pyrrolidine-3-carboxamide] | – | – | – | 57.7
28 | CN1CCN(c2ccc(CN(C(=O)[C@@H]3CCNC3)c3ccc(F)cc3)cn2)CC1 [Compound 259, (3R)-N-(4-fluorophenyl)-N-{[6-(4-methylpiperazin-1-yl)pyridin-3-yl]methyl}pyrrolidine-3-carboxamide] | – | – | – | 59.5
29 | CN1CCN(c2ccc(CN(C(=O)[C@H]3CCN(C(=O)C(C)(C)C)C3)c3ccc(F)cc3)cn2)CC1 [Compound 260, (3S)-1-(2,2-dimethylpropanoyl)-N-(4-fluorophenyl)-N-{[6-(4-methylpiperazin-1-yl)pyridin-3-yl]methyl}pyrrolidine-3-carboxamide] | – | – | – | 47.3
30 | CN1CCN(c2ccc(CN(C(=O)[C@@H]3CCN(C(=O)C(C)(C)C)C3)c3ccc(F)cc3)cn2)CC1 [Compound 261, (3R)-1-(2,2-dimethylpropanoyl)-N-(4-fluorophenyl)-N-{[6-(4-methylpiperazin-1-yl)pyridin-3-yl]methyl}pyrrolidine-3-carboxamide] | – | – | – | 55.6
